# What was measured:
# [1] = tested on: Bleomycin (BLM) pneumonitis; assay: Bleomycin-induced pneumonitis in ICR mice (new inhalation method), left and right lung lobes; assay type: in vivo; conditions: for pathology HE staining of lung: BLM-pneumonitis, GR/GA treatment vs NS; for lung sizes and lung index (lung wet weight/body weight), left and right side: inhaled 110 ul of 5 mg/ml BLM, oral GR 122 mg/kg/day or GA 67 mg/kg/day, three weeks, vs saline (NS)
# Description: (§1) The subject invention provides an easy-perform mouse model with inhalation of 110-130 ul of liquid dissolved with various chemicals (e.g., anti-cancer drug or toxic paraquat) deep into whole lung to induce chemicals-pneumonitis. Compared with currently used intratracheal instillation, this new method is more quick (finished within 3 minutes) and non-invasion without surgically exposing the trachea. It delivers agents using a micropipette into the trachea at the back of the throat and allows the mouse to inhale into the lung with operator help for liquid deep-even distribution in the whole lung. This easy operation can quickly set-up for more than one hundred mice with chemicals-pneumonitis, providing enough mice for the screening or validating of various chemical or biological agents for anti-lung inflammation/infection to meet clinical needs.
# (§2) A. After anesthesia, a rubber band was attached to the front teeth of the mice, and the mouse body was vertically upright. The tip of the tongue was pulled out with forceps, and 100-130 ul of liquid reagent was dripped into the upper part of the trachea at the back of the throat. The reagent was naturally inhaled into the mouse lung. […] Entire process was about one minute.
# (§3) B. The mouse held firmly in the hands of the operator, moved up and down for 3-5 times to let the liquid moving deep into the lung, rotated around for 2-3 circles and repeated for 3 times to let the liquid evenly distributed in the lung. Entire process was about one minute.
# Then, the mice were randomly divided into three groups (6 mice/group) and orally given different agents: 1) NS: vehicle of saline; 2) GR: 122 mg/kg/day of GR; 3) GA: 67 mg/kg/day of GA. Three weeks later, mice were sacrificed and the lung lobes of left and right sides were harvested separately.
# BLM-pneumonitis = BLM-pneumonitis in C57BL/6 mice; assay type: in vivo; conditions: for mitigation/treatment effect on the severity of BLM-pneumonitis: 3 week period, compared with Dexamethasone; for neutrophils % / lymphocytes % / number of lymphocytes: C57BL/6 mice with BLM-pneumonitis; for lymphocytes % / number of lymphocytes: vs saline-treated; for body weight / dose as low as which could reduce the severity of BLM-pneumonitis: C57BL/6 mice; for body weight: BLM, oral Dexamethasone 1, GR 70, GA 22 mg/kg/day, 2 weeks; for dose as low as which could reduce the severity of BLM-pneumonitis: oral
# Description: as §1, §2, §3
# C57BL/6 mice (8 weeks, male) were anesthetized and inhalated 110 ul of 5 mg/ml Bleomycin (BLM) to induce BLM-pneumonitis (new method in FIG. 2). Then, the mice were randomly divided into groups (7 mice/group) and orally given different agents: 1) Normal: as time control without any treatment; 2) NS: treated with saline as vehicle control (all agents in saline); 3) Dexamethasone: 1 mg/kg/day of Dexamethasone; 4) GR: at the indicated three different doses of GR; 5) GA: at the indicated three different doses of GA. Due to the severe BLM-pneumonitis, the inflammatory factors (such as MPO, IL 6 etc.) were released to cause acute reactions: dilation of alveolar capillaries, increased permeability, plasma exudation, blood cells entering the lung interstitium/alveoli, resulting in an increased wet weight of whole lung. The lung index was calculated as: whole lung wet weight/body weight. The higher of lung index, the severer of pneumonitis.
# C57BL/6 mice (8 weeks, male) were anesthetized and inhalated 110 ul of 5 mg/ml Bleomycin (BLM) to induce BLM-pneumonitis (new method in FIG. 2). Then, the mice were randomly divided into four groups and orally given different agents: 1) NS: vehicle of saline; 2) Dexamethasone: 1 mg/kg/day of Dexamethasone; 3) GR: 70 mg/kg/day of GR; 4) GA: 22 mg/kg/day of GA. Due to the severe lung inflammation, the body weights of mice were lost during 2 weeks.
# [2] = tested on: various chemicals-induced pneumonitis (Bleomycin, Cisplatin, 5-Fluorouracil, Mitomycin, Methotrexate, paraquat); assay: Various chemicals-induced pneumonitis in ICR mice; assay type: in vivo; conditions: for lung index (lung wet weight/body weight) / WBC number in blood: ICR mice, different time points; for lung index (lung wet weight/body weight): various inhaled chemicals, gavage of GR or GA; for WBC number in blood: gavage 122 mg/kg/day of GR or 67 mg/kg/day of GA within one hour; for number of neutrophils: pneumonitis induced by anticancer agents; for NLR (ratio of neutrophils to lymphocytes): various chemicals-induced pneumonitis; for lymphocytes %: various chemicals-induced pneumonitis incl. 5-FU, BLM and Cisplatin
# [3] = tested on: TGFβ and Collagen I expression in lung tissue; assay: Bleomycin-induced late lung damage, lung tissue q-PCR of pro-fibrosis molecules; assay type: in vivo, Mice; conditions: 5 weeks after inhalation
# Osimertinib-pneumonitis = assay type: in vivo, human; conditions: GR 300 mg/day orally
# Description: A patient with lung cancer was treated with Osimertinib (80 mg/day), targeting EGFR pathway. […] At this time point, GR (300 mg/day) was orally used and the extent of Osimertinib-pneumonitis was reduced after one month use of GR (FIG. 17 C). Six months after using GR, pneumonitis subsided while Osimertinib was continuously used to target EGFR pathway (FIG. 17 D).
# H1N1 A/FM/1/47 = assay: H1N1-pneumonia (H1N1-flu model) in mice; assay type: in vivo, C57BL/6 mice
# [4] = tested on: IL6 and MPO expression in lung tissue; assay: Bleomycin+Paraquat-induced pneumonitis, lung tissue q-PCR of acute inflammation molecules; assay type: in vivo; conditions: ICR mice, Bleomycin then paraquat 2 weeks later; sacrificed after 2 weeks
# Description: ICR mice were inhalated with 130 ul of 5 mg/ml, and then 2 week later 0.1 mg/ml of paraquat with mitigation using GR or GA. After 2 weeks, mice were sacrificed and the lung tissue were examined with q-PCR for the expression of acute inflammation molecules, such as IL6 and MPO.
# H22 liver cancer = assay: Tumor growth in ICR mice bearing H22 liver cancer; assay type: in vivo; conditions: GA 40 mg/kg
# Description: To determine if GR/GA are used for mitigation/treatment of anti-cancer drugs induced pneumonitis has any blocking effect on anticancer, the GA (40 mg/kg) was used in ICR mice bearing with aggressive H22 liver cancer.
# H22 tumor = assay: H22 tumor-bearing mice treated with active immunotherapy (H22 vaccine) with GA; assay type: in vivo
# Description: To determine if GA affects the anti-cancer immunotherapy, the H22 tumor-bearing mice were immunized with H22 vaccine, and GA (40 mg/kg) was used for anti-inflammation. The traditional Aspirin (60 mg/kg) was used as drug-control.
# [5] = Pharmacokinetics (PK) after oral GR or GA, plasma LC-MS/MS; assay type: in vivo; conditions: ICR mice, 400 mg/kg of GR or 224 mg/kg of GA (equal mole)
# Description: After oral taken, it is converted into GA, an aglycone, fat soluble and easily absorbed through double lipid layer. Therefore, we propose that their pharmacokinetics (PK) should be different. […] 100 μl of plasma was added with 30 μl internal standard solution (100 ng/ml) and then 0.5 ml ethyl acetate. The mixture was vortex mixed for 3 min, centrifuged at 14 000×g for 15 min, and then removed 470 μl of supernatant to dry. After re-dissolved in 100 μl of acetonitrile-water (80[…]20, V/V, mobile phase agent), 20 μl was used for LC-MS/MS analysis.
Compound,pathology HE staining of lung [1],"lung sizes and lung index (lung wet weight/body weight), left and right side [1]",mitigation/treatment effect on the severity of BLM-pneumonitis (BLM-pneumonitis),neutrophils % (BLM-pneumonitis),lymphocytes % (BLM-pneumonitis),number of lymphocytes (BLM-pneumonitis),body weight (BLM-pneumonitis),dose as low as which could reduce the severity of BLM-pneumonitis (BLM-pneumonitis),lung index (lung wet weight/body weight) [2],WBC number in blood [2],number of neutrophils [2],NLR (ratio of neutrophils to lymphocytes) [2],lymphocytes % [2],Collagen I expression in lung tissue (q-PCR) [3],TGFb expression in lung tissue (q-PCR) [3],WBC number (H1N1 A/FM/1/47; day 12),lymphocytes % (H1N1 A/FM/1/47; day 12),further results
"CC1(C)[C@@H](O[C@H]2O[C@H](C(=O)O)[C@@H](O)[C@H](O)[C@H]2O[C@@H]2O[C@H](C(=O)O)[C@@H](O)[C@H](O)[C@H]2O)CC[C@]2(C)[C@H]3C(=O)C=C4[C@@H]5C[C@@](C)(C(=O)O)CC[C@]5(C)CC[C@@]4(C)[C@]3(C)CC[C@@H]12 [GR, glycyrrhizic acid]",less inflitration of inflammation cells and better lung structure,significantly reduced,better than Dexamethasone,greatly reduced,increased almost to the normal level,increased,helped mice to maintain their body weight,≤ 40 mg/kg/day,significantly reduced,reduced,reduced,reduce,increased,reduced,reduced,reduced WBC number greater than Ribavirin,significantly increased,"extent of Osimertinib-pneumonitis (Osimertinib-pneumonitis; after one month): reduced; Osimertinib-pneumonitis (Osimertinib-pneumonitis; six months, Osimertinib continued): subsided; lymphocytes number (H1N1 A/FM/1/47; H1N1-pneumonia, vs NS): increased it in greater degree than Ribavirin; neutrophils % (H1N1 A/FM/1/47; H1N1-pneumonia, vs NS): reduced them in greater degree than Ribavirin; neutrophils number (H1N1 A/FM/1/47; H1N1-pneumonia, vs NS): reduced them in greater degree than Ribavirin; lung index (H1N1 A/FM/1/47; day 7, 2×LD50 virus, GR 70 mg/kg gavage once a day): acted like Ribavirin to reduce the lung index; lymphocytes % (H1N1 A/FM/1/47; day 7 of infection): slightly increased; IFNg level (H1N1 A/FM/1/47; day 12): much less than that in NS and Ribavirin group; MCP-1 level (H1N1 A/FM/1/47; day 12): reduces MCP-1 to a normal level; ratio of neutrophils to lymphocytes (NLR) (H1N1 A/FM/1/47; day 12): reduced; spleen index (H1N1 A/FM/1/47; day 12): reduced spleen index; lung index (H1N1 A/FM/1/47; day 12, 1×LD50 virus): still had a reduced lung index"
glycyrrhetinic acid [GA],less inflitration of inflammation cells and better lung structure,significantly reduced,better than Dexamethasone,greatly reduced,increased almost to the normal level,increased,helped mice to maintain their body weight,≤ 22 mg/kg/day,significantly reduced,reduced,reduced,reduce,increased,reduced,reduced,reduced WBC number greater than Ribavirin,significantly increased,"IL6 expression in lung tissue (q-PCR) [4]: reduces; MPO expression in lung tissue (q-PCR) [4]: reduces; growth of tumor (H22 liver cancer): could reduce the growth of cancer in vivo; survival (H22 tumor; 80 day follow-up, tumor-bearing mice treated with H22 vaccine and GA): could prolong the survival time of mice; effect of combination use on the anti-tumor effect of H22 vaccine (H22 tumor; GA 40 mg/kg with H22 vaccine): not affected; Tmax [5]: 30 min"
